Results reported in patent publication US20230365691A1, “USE OF ANTI-PD-1 ANTIBODY IN TREATMENT OF NASOPHARYNGEAL CARCINOMA” (SHANGHAI JUNSHI BIOSCIENCES CO., LTD., priority 2020, published 2023).
Where two headings read alike, the source gives them in different places.

Legend:
[1] = tested on: recurrent or metastatic nasopharyngeal carcinoma patient; conditions: human, in vivo
Excerpt: Inclusion criteria: eligible subjects must (1) be 18 years old or older, (2) have recurrent or metastatic nasopharyngeal carcinoma, (3) be refractory to standard systemic therapy or have progressive disease after 6 months of radiotherapy and chemotherapy, (4) have an ECOG score of 0 or 1, (5) have the normal organ function within 10 days […] treatment, (6) have no history of autoimmune diseases or other malignant cancers, and (7) have not received any anti-PD-1/or anti-PD-L1 immunotherapy before.
Subjects must have an evaluable lesion according to RECIST v 1.1, have not received anti-tumour monoclonal antibody drug treatment within 4 weeks before treatment, have not received any anti-tumour drug treatment within 2 weeks before treatment, and have not received systemic steroid drug treatment within 7 days before treatment.
From Dec. 22, 2016 to Feb. 19, 2019, a total of 279 patients with recurrent or metastatic NPC were screened from 17 centres in Chinese mainland, and 190 patients were enrolled in this study. […] Of the two histological subtypes, 182 patients (95.8%) had non-keratinizing NPC and 8 patients (4.2%) had keratinizing NPC. There were 116 patients (61.1%) who had received at least two kinds of systemic therapy.
Test drug: anti-PD-1 antibody toripalimab (WO 2014206107). […]

[2] = Immunogenicity: anti-drug antibodies (ADAs) in the phase II trial; assay type: in vivo, human
Excerpt: Anti-drug antibodies (ADAs) were detected in 190 patients. Seven cases (3.7%) were positive for ADA, including four consecutive positive samples.

[3] = tested on: recurrent or metastatic nasopharyngeal carcinoma patient; assay: Single-arm phase II clinical trial of toripalimab: anti-tumour activity by RECIST v1.1 / irRECIST; assay type: in vivo, human
Method: Test drug: anti-PD-1 antibody toripalimab (WO 2014206107).
The subjects were evaluated every 8 weeks for the first year and every 12 weeks thereafter according to RECIST v1.1 and the Immune-Related Response Evaluation Criteria in Solid Tumour (irRECIST). The subjects were evaluated every 3 months after drug discontinuance.
This was a single-arm, phase II, open-label clinical trial. This study was conducted to evaluate the safety and anti-tumour activity of an anti-PD-1 antibody in treatment of a recurrent or metastatic nasopharyngeal carcinoma patient.

[4] = tested on: recurrent or metastatic nasopharyngeal carcinoma patient; assay type: in vivo, human
Method: The PD-L1 expression status in tumour biopsies was determined by SP142 IHC staining, with tumour proportion score (TPS) > 1% being determined as positive.
Tumour biopsy tissues and matched peripheral blood samples from subjects were subjected to whole exome sequencing (WES) to identify tumour-specific mutations. […] In this study, the top 10% or 20% cut-off values of TMB (2.9 Muts/Mb and 2.0 Muts/Mb, respectively) were selected for evaluation of clinical response.
The correlation between genomic changes and clinical efficacy was analysed.
Plasma was collected from patients before administration, and the number of copies of EBV DNA was analysed by qRT-PCR once every 4 weeks.

[5] = Investigator, RECIST1.1, n = 190
[6] = Investigator, irRECIST, n = 190
[7] = at least two prior treatments (n = 116)
[8] = keratinizing versus non-keratinizing NPC

## toripalimab
[1]
  patients subjected to dose interruption due to TRAEs: 3.7%
[2]; 190 patients
  cases positive for ADA: 3.7%
[2]; between ADA positive and negative patients
  difference in incidence of AEs, SAEs and AEs of grade 3 or above, drug discontinuance or dose delay, and clinical efficacy: no significant difference
[3]; IRC, RECIST1.1, n = 190
  CR: 5 (2.6%)
  NE: 28 (14.7%)
  PD: 86 (45.3%)
  PR: 34 (17.9%)
[3]; IRC, RECIST v1.1, 190 patients
  CR: 5 cases
  PR: 34 cases
[3]; IRC, irRECIST, n = 190
  CR: 5 (2.6%)
  NE: 28 (14.7%)
  PD: 71 (37.4%)
  PR: 34 (17.9%)
[3]; IRC, keratinizing NPC (n = 8)
  ORR: 62.5%
[3]; IRC, non-keratinizing NPC (n = 182)
  ORR: 18.7%
[3]; [5]
  CR: 5 (2.6%)
  DCR (%): 88 (46.3%)
  NE: 24 (12.6%)
  ORR (%): 40 (21.1%)
  PD: 78 (41.1%)
  PR: 35 (18.4%)
[3]; [6]
  CR: 5 (2.6%)
  DCR (%): 103 (54.2%)
  NE: 28 (14.7%)
  ORR (%): 44 (23.2%)
  PD: 59 (31.1%)
  PR: 39 (20.5%)
[3]; all subjects
  median DOR: 12.8 months
  median overall survival (mOS): 17.4 months
  median progression-free survival (mPFS): 1.9 months
  median time to response: 1.8 months
[3]; as of Feb. 19, 2020, 190 patients
  patients who had died: 49.5%
[3]; [7]
  mOS: 15.1 months
  mPFS: 2.0 months
  median DOR: 21.5 months
[3]; keratinizing NPC
  OS: not reached
  PFS: 16.6 months
[3]; [8]
  HR for OS: 0.51
  HR for PFS: 0.46
[3]; n = 190
  subjects who had reductions in target lesions relative to baseline: 38.4%
  subjects with a reduction greater than or equal to 30% in target lesions from baseline: 25.3%
[3]; non-keratinizing NPC
  OS: 15.1 months
  PFS: 1.9 months
[3]; patients who had received at least two prior treatments (n = 116)
  ORR: 21.6%
[3]; subjects experiencing objective response (n = 39) or stable disease (n = 38)
  median OS: not reached
[3]; subjects with progressive disease (n = 113)
  median OS: 8.4 months
[4]; 10% of patients with the highest TMB value, similar to the 90% with the lowest TMB value
  PFS: 1.9 months
[4]; 11 patients with genome amplification of CCND1 and/or FGF14, FGF3 or FGF4 chromosome 11q13 region
  ORR: 0%
[4]; 14 patients who experienced progressive disease
  median time of at least 2-fold increase in plasma EBV DNA copies prior to imaging-confirmed progressive disease: 3 months
[4]; 19 patients with ETV6 mutations
  ORR: 5.3%
[4]; PD-L1+ patients
  ORR: 27.1%
[4]; PD-L1- patients
  ORR: 19.4%
[4]; PD-L1 > 25%
  mOS: not reached
  mPFS: 7.2 months
[4]; PD-L1 > 25% versus ≤ 25%
  HR for OS: 0.57
  HR for PFS: 0.64
[4]; PD-L1 ≤ 25%
  mPFS: 1.9 months
[4]; at least 2-fold decrease in plasma EBV DNA copies on day 28 (n = 60)
  ORR: 48.3%
[4]; baseline EBV titre < 10000 IU/mL
  ORR: 26.7%
[4]; baseline EBV titre ≥ 10000 IU/mL
  ORR: 15.4%
[4]; high TMB patients
  OS: 9.2 months
[4]; less than 2-fold decrease in plasma EBV DNA copies on day 28 (n = 88)
  ORR: 5.7%
[4]; low TMB patients
  OS: 17.4 months
[4]; patients with PD-L1 > 25%
  ORR: 38.1%
[4]; patients with PD-L1 ≤ 25%
  ORR: 19.3%
[4]; patients with objective response (n = 34)
  median decrease in the number of copies of EBV DNA in plasma from baseline to the nadir: 31 fold
[4]; patients with progressive disease (n = 80)
  change in the number of copies of EBV DNA in plasma from baseline: no change
[4]; patients with stable disease (n = 35)
  decrease in the number of copies of EBV DNA in plasma from baseline to the nadir: 3 fold
[4]; top 10% of patients by TMB (cut-off 2.9 Muts/Mb)
  ORR: 17.6%
[4]; top 20% of patients by TMB (cut-off 2.0 Muts/Mb)
  ORR: 14.3%
